Target: Jack bean urease (Canavalia ensiformis, UniProt P07374)
Test: urease inhibition assay, indophenol
Assay type: biochemical

Jack bean urease, sequence (P07374 whole entry, looked up): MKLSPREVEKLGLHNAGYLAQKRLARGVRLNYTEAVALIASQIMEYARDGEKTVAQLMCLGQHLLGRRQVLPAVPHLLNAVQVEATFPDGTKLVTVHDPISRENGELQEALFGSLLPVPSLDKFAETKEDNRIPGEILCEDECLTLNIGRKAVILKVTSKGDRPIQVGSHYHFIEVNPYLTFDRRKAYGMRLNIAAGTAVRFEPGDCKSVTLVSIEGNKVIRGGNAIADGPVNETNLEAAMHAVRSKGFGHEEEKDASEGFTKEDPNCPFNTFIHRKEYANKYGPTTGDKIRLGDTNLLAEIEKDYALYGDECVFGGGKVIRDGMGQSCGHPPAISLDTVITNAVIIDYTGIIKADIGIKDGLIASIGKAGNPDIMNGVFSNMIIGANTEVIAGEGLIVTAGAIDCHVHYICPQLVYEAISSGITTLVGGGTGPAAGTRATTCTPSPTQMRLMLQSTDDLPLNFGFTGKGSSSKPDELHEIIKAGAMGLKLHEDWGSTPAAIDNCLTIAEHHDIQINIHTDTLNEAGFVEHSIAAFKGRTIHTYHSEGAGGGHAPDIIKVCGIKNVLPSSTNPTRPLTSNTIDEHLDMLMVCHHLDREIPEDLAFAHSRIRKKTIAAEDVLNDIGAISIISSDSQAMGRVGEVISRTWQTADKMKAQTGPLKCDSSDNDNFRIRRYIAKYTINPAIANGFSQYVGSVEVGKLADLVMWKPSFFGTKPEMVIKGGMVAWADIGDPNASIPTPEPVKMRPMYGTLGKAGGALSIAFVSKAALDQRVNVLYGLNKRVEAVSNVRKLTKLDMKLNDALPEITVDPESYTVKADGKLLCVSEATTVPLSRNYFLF

`CC(=O)c1ccc(NC(=S)NC(=O)c2ccc(Cl)cc2Cl)cc1` [compound 4, N-((4-Acetylphenyl)carbamothioyl)-2,4-dichlorobenzamide] was tested, and the IC50 was 38.9 ± 1.7 nM.

— paper PMC9185314 (RSC Advances, 2022)
